Patent US12195427B2, “MASP-2 inhibitors and methods of use” (priority 2018, dated 2025)
Counter-ions that a name gives are not always drawn.

Target: MASP-2 CCP2-SP (Homo sapiens (Human), UniProt O00187)
Experiment: MASP-2 co-crystallization, X-ray crystallography and structure analysis (H-bonds, van der Waals contacts);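 on Ligand-pharmacophore element distance, pharmacophore element C2: distance from averaged pharmacophore element to bound ligand; missing value means element absent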;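 on Ligand-pharmacophore element distance, pharmacophore element C3: distance from averaged pharmacophore element to bound ligand; missing value means element absent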;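 on Ligand-pharmacophore element distance, pharmacophore element C4: distance from averaged pharmacophore element to bound ligand; missing value means element absent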;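 on Ligand-pharmacophore element distance, pharmacophore element C5: distance from averaged pharmacophore element to bound ligand; missing value means element absent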
Set-up: van der Waals contact distance, MASP-2 HIS 483 atom CD2 / van der Waals contact distance, MASP-2 HIS 483 atom NE2 / van der Waals contact distance, SER 654 C to compound atom / van der Waals contact distance, SER 654 O to compound atom / van der Waals contact distance, TRP 655 C to compound atom / van der Waals contact distance, MASP-2 GLY 528 atom CA / van der Waals contact distance TRP 655 atom CZ3 / van der Waals contact distance TRP 655 atom N / van der Waals contact distance TRP 655 atom CE3 / van der Waals contact distance GLY 656 atom C / van der Waals contact distance GLY 656 atom CA / van der Waals contact distance GLY 656 atom O / van der Waals contact distance, MASP-2 TYR 607 atom CD1 / van der Waals contact distance, MASP-2 PRO 606 atom O / d(C3,CA1) / d(CA1,N1)2 / d(H4,O1) / d(H4,O2) / d(O1,O2) / d(CA1,O2) / d(CA6,O1) / d(CA6,O2) / d(CA1,C5) / d(O2,H3) / d(N2,C2) / d(CA5,N2) / d(N2,C4) / d(N2,C6) / d(N2,CA3) / d(N2,O3) / d(O4,H2): unit not given beside the values
Conditions: for H-bond distance to MASP-2 ASP 627 atom OD2: ASP 627 OD2; for H-bond distance to MASP-2 GLY 656 atom N: GLY 656 N; for H-bond distance to MASP-2 SER 628 atom O: SER 628 O; for H-bond distance to MASP-2 SER 654 atom O: SER 654 O; for H-bond distance to MASP-2 SER 657 atom O: SER 657 O; for van der Waals contact distance, MASP-2 HIS 483 atom CD2 / van der Waals contact distance, MASP-2 HIS 483 atom NE2: Table A2-1; for van der Waals contact distance TRP 655 atom CE3: MASP-2 TRP 655 CE3, compound atom in line below; for van der Waals contact distance TRP 655 atom CZ3: MASP-2 TRP 655 CZ3; for Ligand-pharmacophore element distance, pharmacophore element C2 / Ligand-pharmacophore element distance, pharmacophore element C3 / Ligand-pharmacophore element distance, pharmacophore element C4 / Ligand-pharmacophore element distance, pharmacophore element C5 / Ligand-pharmacophore element distance, pharmacophore element C6 / Ligand-pharmacophore element distance, pharmacophore element C7 / Ligand-pharmacophore element distance, pharmacophore element CA1 / Ligand-pharmacophore element distance, pharmacophore element CA2 / Ligand-pharmacophore element distance, pharmacophore element CA3 / Ligand-pharmacophore element distance, pharmacophore element CA4 / Ligand-pharmacophore element distance, pharmacophore element CA5 / Ligand-pharmacophore element distance, pharmacophore element CA6: Table A4-1; for a(O1, O2, H3) / a(O1, O2, N2) / a(O2, N2, CA2): Table A6-2 pharmacophore angle; for H-bond distance to MASP-2 GLY 656 atom O: GLY 656 O; for van der Waals contact distance, MASP-2 GLY 528 atom CA: Table A2-2
Summary of the method: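 Soaked crystals of recombinant CCP2-SP (E. coli) yield the structures, phased by molecular replacement on 1Q3X pieces. Hydrophobic or nonbonded contacts can also cover atom pairs that are potential hydrogen bonds.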

[1] = Table A2-7: SER 628 (CB, O, OG)
[2] = Table A5-1 pharmacophore: distance between elements, S2/S1 region
[3] = Table A5-2 pharmacophore distance, S3/S4 region
[4] = Table A7-1, between pharmacophore elements of the bound compound
[5] = Table A7-2, between pharmacophore elements of the bound compound

Sequence of MASP-2 CCP2-SP (O00187 445-686): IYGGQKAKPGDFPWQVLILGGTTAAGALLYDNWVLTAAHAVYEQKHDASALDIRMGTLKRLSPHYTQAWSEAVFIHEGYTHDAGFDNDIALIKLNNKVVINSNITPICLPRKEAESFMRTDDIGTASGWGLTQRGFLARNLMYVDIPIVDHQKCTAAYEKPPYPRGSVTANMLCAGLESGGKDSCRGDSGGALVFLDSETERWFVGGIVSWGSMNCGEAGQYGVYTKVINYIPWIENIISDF
Sequence of MASP-2 CCP2-SP (O00187 364-432 partner): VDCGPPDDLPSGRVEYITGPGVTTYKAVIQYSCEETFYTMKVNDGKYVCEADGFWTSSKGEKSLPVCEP

With `CC(=O)Nc1ccc(CCN[C@H](CCc2ccccc2)C(=O)N[C@@H](C)C(=O)NCc2ccc(N)nc2C)cc1` [compound 1368, (R)-2-((4-Acetamidophenethyl)amino)-N—((S)-1-(((6-amino-2-methylpyridin-3-yl)methyl)amino)-1-oxopropan-2-yl)-4-phenylbutanamide Dihydrochloride] the “H-bond distance to MASP-2 ASP 627 atom OD2” value (Table A1 (H-Bonds)) was 3.24, the “H-bond distance to MASP-2 GLY 656 atom N” value (Table A1 (H-Bonds)) was 3.07 and the “H-bond distance to MASP-2 PRO 606 atom O” value (Table A1 (H-Bonds), PRO 606 O) was 3.21. The “H-bond distance to MASP-2 SER 628 atom O” value (Table A1 (H-Bonds)) was 3.16, the “H-bond distance to MASP-2 SER 654 atom O” value (Table A1 (H-Bonds)) was 3.04 and the “H-bond distance to MASP-2 SER 657 atom O” value (Table A1 (H-Bonds)) was 2.94. For the same molecule, the “van der Waals contact distance, MASP-2 HIS 483 atom CD2” value was 3.86, the “van der Waals contact distance, MASP-2 HIS 483 atom NE2” value was 3.67 and the “van der Waals contact distance, MASP-2 PHE 529 atom CE2” value (Table A2-3) was 3.79. The “van der Waals contact distance, MASP-2 PHE 529 atom CZ” value (Table A2-3) was 3.71, the “van der Waals contact distance, MASP-2 PRO 606 atom CB” value (Table A2-4) was 3.6 and the “van der Waals contact distance, MASP-2 PRO 606 atom O” value (Table A2-4) was 3.75. For the same molecule, the “van der Waals contact distance, MASP-2 amino acid atom to compound atom” value [1] was 3.63, the “van der Waals contact distance, VAL 653 CG1 to compound atom” value (Table A2-11) was 3.32 and the “van der Waals contact distance, SER 654 O to compound atom” value (Table A2-12) was 3.85. The “van der Waals contact distance, TRP 655 CA to compound atom” value (Table A2-12) was 3.29, the “van der Waals contact distance TRP 655 atom CE3” value (Table A2-13) was 3.52 and the “van der Waals contact distance TRP 655 atom CZ3” value (Table A2-13) was 3.87. The “Ligand-pharmacophore element distance, pharmacophore element C2” value was 0, the “Ligand-pharmacophore element distance, pharmacophore element C3” value was 0.16 and the “Ligand-pharmacophore element distance, pharmacophore element C4” value was 0. The “Ligand-pharmacophore element distance, pharmacophore element C5” value was 0, the “Ligand-pharmacophore element distance, pharmacophore element C6” value was 0 and the “Ligand-pharmacophore element distance, pharmacophore element C7” value was 0. For the same molecule, the “Ligand-pharmacophore element distance, pharmacophore element CA1” value was 0.62, the “Ligand-pharmacophore element distance, pharmacophore element CA2” value was 0.95 and the “Ligand-pharmacophore element distance, pharmacophore element CA3” value was 0. For the same molecule, the “Ligand-pharmacophore element distance, pharmacophore element CA4” value was 0, the “Ligand-pharmacophore element distance, pharmacophore element CA5” value was 2.23 and the “Ligand-pharmacophore element distance, pharmacophore element CA6” value was 0. For the same molecule, the “d(C3,CA1)” value [2] was 2.86, the “d(CA1,N1)2” value [2] was 1.39 and the “d(CA1,O1)” value [2] was 4.30. For the same molecule, the “d(CA1,O2)” value [2] was 8.92, the “d(H4,O1)” value [2] was 4.34 and the “d(H4,O2)” value [2] was 8.84. For the same molecule, the “d(O1,O2)” value [2] was 7.07, the “d(CA5,N2)” value [3] was 4.47 and the “d(N2,CA2)” value [3] was 6.36. For the same molecule, the “d(O2,H3)” value [3] was 7.79, the “d(O2,N2)” value [3] was 4.30 and the “a(C3, CA1, O1)” value (Table A6-1 pharmacophore angle) was 149.59. The “a(CA1, O1, O2)” value (Table A6-1 pharmacophore angle) was 151.69, the “a(O1, O2, H4)” value (Table A6-1 pharmacophore angle) was 127.75 and the “a(N1, CA1, O1) b)” value (Table A6-1 pharmacophore angle, Methyl-amino-pyridine compounds) was 173.57. For the same molecule, the “a(O1, O2, H3)” value was 119.72, the “a(O1, O2, N2)” value was 74.03 and the “a(O2, N2, CA2)” value was 145.05. For the same molecule, the “Pharmacophore torsion angle a(C3, CA1, O1, H4)” value [4] was 22.95, the “Pharmacophore torsion angle a(H4, O1, O2, H3)” value [4] was 40.86 and the “Pharmacophore torsion angle a(H4, O1, O2, N2)” value [4] was 68.19. For the same molecule, the “Pharmacophore torsion angle a(N1, CA1, O1, H4)” value [4] was −2.26, the “Pharmacophore torsion angle a(O1, H4, O2, CA1)” value [4] was −74.89 and the “Pharmacophore torsion angle a(O1, O2, N2, CA2)” value [5] was −100.57. For the same molecule, the “Pharmacophore torsion angle a(O1, O2, N2, CA5)” value [5] was 124.36.
For `C[C@H](NC(=O)[C@H]1C[C@H](Cc2ccccc2)CN1)C(=O)NCc1cc(Cl)ccc1-n1cnnn1` [compound 1371, (2R,4S)-4-Benzyl-N—((S)-1-((5-chloro-2-(1H-tetrazol-1-yl)benzyl)amino)-1-oxopropan-2-yl)pyrrolidine-2-carboxamide Hydrochloride], the “H-bond distance to MASP-2 GLY 656 atom N” value (Table A1 (H-Bonds)) was 3.18, the “H-bond distance to MASP-2 GLY 656 atom O” value (Table A1 (H-Bonds)) was 2.75 and the “H-bond distance to MASP-2 SER 654 atom O” value (Table A1 (H-Bonds)) was 2.86. The “H-bond distance to MASP-2 SER 657 atom O” value (Table A1 (H-Bonds)) was 2.96, the “van der Waals contact distance, MASP-2 HIS 483 atom CD2” value was 3.55 and the “van der Waals contact distance, MASP-2 HIS 483 atom NE2” value was 3.61. The “van der Waals contact distance, MASP-2 GLY 528 atom CA” value was 3.8, the “van der Waals contact distance, MASP-2 PHE 529 atom CD2” value (Table A2-3) was 3.86 and the “van der Waals contact distance, MASP-2 PHE 529 atom CE2” value (Table A2-3) was 3.89. For the same molecule, the “van der Waals contact distance, MASP-2 amino acid atom to compound atom” value (Table A2-9 second part, ARG 630, AA atoms N, NE, NH1) was 3.44, the “van der Waals contact distance, SER 654 C to compound atom” value (Table A2-11) was 3.9 and the “van der Waals contact distance GLY 656 atom C” value (Table A2-13, MASP-2 GLY 656 C) was 3.84. For the same molecule, the “van der Waals contact distance, MASP-2 amino acid atom to compound atom” value (Table A2 section before Table A2-8) was 3.76, the “Ligand-pharmacophore element distance, pharmacophore element C2” value was 0 and the “Ligand-pharmacophore element distance, pharmacophore element C3” value was 0. The “Ligand-pharmacophore element distance, pharmacophore element C4” value was 0, the “Ligand-pharmacophore element distance, pharmacophore element C5” value was 0.48 and the “Ligand-pharmacophore element distance, pharmacophore element C6” value was 0. For the same molecule, the “Ligand-pharmacophore element distance, pharmacophore element C7” value was 0, the “Ligand-pharmacophore element distance, pharmacophore element CA1” value was 0.58 and the “Ligand-pharmacophore element distance, pharmacophore element CA2” value was 0.46. The “Ligand-pharmacophore element distance, pharmacophore element CA3” value was 0, the “Ligand-pharmacophore element distance, pharmacophore element CA4” value was 0 and the “Ligand-pharmacophore element distance, pharmacophore element CA5” value was 0. The “Ligand-pharmacophore element distance, pharmacophore element CA6” value was 0, the “d(CA1,O1)” value [2] was 3.46 and the “d(CA1,O2)” value [2] was 3.72. For the same molecule, the “d(H4,O1)” value [2] was 3.13, the “d(H4,O2)” value [2] was 3.66 and the “d(O1,O2)” value [2] was 3.25. The “d(N2,CA2)” value [3] was 5.90, the “d(O2,H3)” value [3] was 1.96 and the “d(O2,N2)” value [3] was 2.79. The “a(CA1, O1, O2)” value (Table A6-1 pharmacophore angle) was 121.03, the “a(O1, O2, H4)” value (Table A6-1 pharmacophore angle) was 123.31 and the “a(O1, O2, H3)” value was 136.64. The “a(O1, O2, N2)” value was 146.93, the “a(O2, N2, CA2)” value was 155.86 and the “Pharmacophore torsion angle a(H4, O1, O2, H3)” value [4] was −165.12. For the same molecule, the “Pharmacophore torsion angle a(H4, O1, O2, N2)” value [4] was −174.11, the “Pharmacophore torsion angle a(O1, H4, O2, CA1)” value [4] was −68.15 and the “Pharmacophore torsion angle a(O1, O2, N2, CA2)” value [5] was 136.54.
In the case of `Cc1nc(N)ccc1CNC(=O)[C@H](C)NC(=O)[C@H]1C[C@H](Cc2ccccc2Br)CN1` [compound 1372, (2R,4S)—N—((S)-1-(((6-Amino-2-methylpyridin-3-yl)methyl)amino)-1-oxopropan-2-yl)-4-(2-bromobenzyl)pyrrolidine-2-carboxamide Di-trifluoroacetate salt], the “H-bond distance to MASP-2 ASP 627 atom OD2” value (Table A1 (H-Bonds)) is reported as 3.17, the “H-bond distance to MASP-2 GLY 656 atom N” value (Table A1 (H-Bonds)) is reported as 3.23 and the “H-bond distance to MASP-2 GLY 656 atom O” value (Table A1 (H-Bonds)) is reported as 2.81. For the same molecule, the “H-bond distance to MASP-2 SER 628 atom O” value (Table A1 (H-Bonds)) was 3.18, the “H-bond distance to MASP-2 SER 654 atom O” value (Table A1 (H-Bonds)) was 2.97 and the “H-bond distance to MASP-2 SER 657 atom O” value (Table A1 (H-Bonds)) was 2.87. For the same molecule, the “van der Waals contact distance, MASP-2 HIS 483 atom CD2” value was 3.77, the “van der Waals contact distance, MASP-2 HIS 483 atom NE2” value was 3.67 and the “van der Waals contact distance, MASP-2 GLY 528 atom CA” value was 3.83. For the same molecule, the “van der Waals contact distance, MASP-2 TYR 607 atom CD1” value (Table A2-4) was 3.77, the “van der Waals contact distance, MASP-2 amino acid atom to compound atom” value [1] was 3.68 and the “van der Waals contact distance, VAL 653 CG1 to compound atom” value (Table A2-11) was 3.32. For the same molecule, the “van der Waals contact distance, TRP 655 CA to compound atom” value (Table A2-12) was 3.48, the “van der Waals contact distance TRP 655 atom CE3” value (Table A2-13) was 3.54 and the “van der Waals contact distance TRP 655 atom CZ3” value (Table A2-13) was 3.48.
